Results reported in the supplement of paper PMC10307832.

Legend:
Assay in all cases: relative viability (nuclei count vs DMSO), 5 days (fraction); higher = more cells survive
NCI-H2347 = tested on: NCI-H2347
Procedure, shortened: (§1)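 Lung cancer cell lines, seeded in 1536-well plates, were treated the following day by pin tool with a single drug or with five library-drug doses (not always all listed) in √10 steps on top of a fixed anchor-drug dose. Cells were fixed and nuclei stained in one step after 5 days, and nuclei were counted. Relative viability is the nuclei count for treated wells divided by that for vehicle wells, reported as medians of duplicate plates.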

NCI-H1915 = tested on: NCI-H1915
Procedure, shortened: as §1

RERF-LC-KJ = tested on: RERF-LC-KJ
Procedure, shortened: as §1

LXF-289 = tested on: LXF-289
Procedure, shortened: as §1

NCI-H1755 = tested on: NCI-H1755
Procedure, shortened: as §1

SW 1573 = tested on: SW 1573
Procedure, shortened: as §1

LC-2-ad = tested on: LC-2-ad
Procedure, shortened: as §1

NCI-H1975 = tested on: NCI-H1975
Procedure, shortened: as §1

HOP-62 = tested on: HOP-62
Procedure, shortened: as §1

NCI-H2228 = tested on: NCI-H2228
Procedure, shortened: as §1

SK-LU-1 = tested on: SK-LU-1
Procedure, shortened: as §1

HCC-15 = tested on: HCC-15
Procedure, shortened: as §1

A-427 = tested on: A-427
Procedure, shortened: as §1

HCC-78 = tested on: HCC-78
Procedure, shortened: as §1

NCI-H522 = tested on: NCI-H522
Procedure, shortened: as §1

NCI-H2342 = tested on: NCI-H2342
Procedure, shortened: as §1

NCI-H1734 = tested on: NCI-H1734
Procedure, shortened: as §1

NCI-H647 = tested on: NCI-H647
Procedure, shortened: as §1

NCI-H358 = tested on: NCI-H358
Procedure, shortened: as §1

PC-3 [JPC-3] = tested on: PC-3 [JPC-3]
Procedure, shortened: as §1

NCI-H2126 = tested on: NCI-H2126
Procedure, shortened: as §1

Work on `CCN(CC)CCCCNc1ncc2cc(-c3cc(OC)cc(OC)c3)c(NC(=O)NC(C)(C)C)nc2n1` + Cc1cc(Nc2cc(N3CCN(C)CC3)nc(Sc3ccc(NC(=O)C4CC4)cc3)n2)n[nH]1 [Tozasertib] (partner 0.1 µM) yielded a relative viability (NCI-H2347; first compound 0.01 µM) of 0.509, a relative viability (NCI-H2347; first compound 0.03162 µM) of 0.508 and a relative viability (NCI-H2347; first compound 0.1 µM) of 0.718. For the same compound, the relative viability (NCI-H2347; first compound 0.3162 µM) was 0.607, the relative viability (NCI-H2347; first compound 1 µM) was 0.551 and the relative viability (NCI-H1915; first compound 0.01 µM) was 0.464. The relative viability (NCI-H1915; first compound 0.03162 µM) was 0.489, the relative viability (NCI-H1915; first compound 0.1 µM) was 0.48 and the relative viability (NCI-H1915; first compound 0.3162 µM) was 0.461. It also gave a relative viability (NCI-H1915; first compound 1 µM) of 0.348, a relative viability (RERF-LC-KJ; first compound 0.01 µM) of 0.547 and a relative viability (RERF-LC-KJ; first compound 0.03162 µM) of 0.617. For the same compound, the relative viability (RERF-LC-KJ; first compound 0.1 µM) was 0.51, the relative viability (RERF-LC-KJ; first compound 0.3162 µM) was 0.567 and the relative viability (RERF-LC-KJ; first compound 1 µM) was 0.489. It also gave a relative viability (LXF-289; first compound 0.01 µM) of 0.201, a relative viability (LXF-289; first compound 0.03162 µM) of 0.219 and a relative viability (LXF-289; first compound 0.1 µM) of 0.268. For the same compound, the relative viability (LXF-289; first compound 0.3162 µM) was 0.186, the relative viability (LXF-289; first compound 1 µM) was 0.156 and the relative viability (NCI-H1755; first compound 0.01 µM) was 0.624. The relative viability (NCI-H1755; first compound 0.03162 µM) was 0.61, the relative viability (NCI-H1755; first compound 0.1 µM) was 0.607 and the relative viability (NCI-H1755; first compound 0.3162 µM) was 0.622. It also gave a relative viability (NCI-H1755; first compound 1 µM) of 0.535, a relative viability (SW 1573; first compound 0.01 µM) of 0.249 and a relative viability (SW 1573; first compound 0.03162 µM) of 0.148. The relative viability (SW 1573; first compound 0.1 µM) was 0.225, the relative viability (SW 1573; first compound 0.3162 µM) was 0.193 and the relative viability (SW 1573; first compound 1 µM) was 0.173. For the same compound, the relative viability (LC-2-ad; first compound 0.01 µM) was 0.416, the relative viability (LC-2-ad; first compound 0.03162 µM) was 0.467 and the relative viability (LC-2-ad; first compound 0.1 µM) was 0.433. For the same compound, the relative viability (LC-2-ad; first compound 0.3162 µM) was 0.483, the relative viability (LC-2-ad; first compound 1 µM) was 0.453 and the relative viability (NCI-H1975; first compound 0.01 µM) was 0.876. For the same compound, the relative viability (NCI-H1975; first compound 0.03162 µM) was 0.859, the relative viability (NCI-H1975; first compound 0.1 µM) was 1.1 and the relative viability (NCI-H1975; first compound 0.3162 µM) was 0.992. For the same compound, the relative viability (NCI-H1975; first compound 1 µM) was 0.407, the relative viability (HOP-62; first compound 0.01 µM) was 0.473 and the relative viability (HOP-62; first compound 0.03162 µM) was 0.377. For the same compound, the relative viability (HOP-62; first compound 0.1 µM) was 0.386, the relative viability (HOP-62; first compound 0.3162 µM) was 0.408 and the relative viability (HOP-62; first compound 1 µM) was 0.319. For the same compound, the relative viability (NCI-H2228; first compound 0.01 µM) was 0.183, the relative viability (NCI-H2228; first compound 0.03162 µM) was 0.231 and the relative viability (NCI-H2228; first compound 0.1 µM) was 0.319. The relative viability (NCI-H2228; first compound 0.3162 µM) was 0.258, the relative viability (NCI-H2228; first compound 1 µM) was 0.197 and the relative viability (SK-LU-1; first compound 0.01 µM) was 0.306. It also gave a relative viability (SK-LU-1; first compound 0.03162 µM) of 0.359, a relative viability (SK-LU-1; first compound 0.1 µM) of 0.388 and a relative viability (SK-LU-1; first compound 0.3162 µM) of 0.363. The relative viability (SK-LU-1; first compound 1 µM) was 0.259, the relative viability (HCC-15; first compound 0.01 µM) was 0.45 and the relative viability (HCC-15; first compound 0.03162 µM) was 0.311. The relative viability (HCC-15; first compound 0.1 µM) was 0.428, the relative viability (HCC-15; first compound 0.3162 µM) was 0.342 and the relative viability (HCC-15; first compound 1 µM) was 0.247. For the same compound, the relative viability (A-427; first compound 0.01 µM) was 0.199, the relative viability (A-427; first compound 0.03162 µM) was 0.206 and the relative viability (A-427; first compound 0.1 µM) was 0.202. For the same compound, the relative viability (A-427; first compound 0.3162 µM) was 0.174, the relative viability (A-427; first compound 1 µM) was 0.182 and the relative viability (HCC-78; first compound 0.01 µM) was 0.433. For the same compound, the relative viability (HCC-78; first compound 0.03162 µM) was 0.399, the relative viability (HCC-78; first compound 0.1 µM) was 0.507 and the relative viability (HCC-78; first compound 0.3162 µM) was 0.55. For the same compound, the relative viability (HCC-78; first compound 1 µM) was 0.446, the relative viability (NCI-H522; first compound 0.01 µM) was 0.529 and the relative viability (NCI-H522; first compound 0.03162 µM) was 0.604. It also gave a relative viability (NCI-H522; first compound 0.1 µM) of 0.575, a relative viability (NCI-H522; first compound 0.3162 µM) of 0.49 and a relative viability (NCI-H522; first compound 1 µM) of 0.534. It also gave a relative viability (NCI-H2342; first compound 0.01 µM) of 0.448, a relative viability (NCI-H2342; first compound 0.03162 µM) of 0.513 and a relative viability (NCI-H2342; first compound 0.1 µM) of 0.476. It also gave a relative viability (NCI-H2342; first compound 0.3162 µM) of 0.469, a relative viability (NCI-H2342; first compound 1 µM) of 0.537 and a relative viability (NCI-H1734; first compound 0.01 µM) of 0.136. For the same compound, the relative viability (NCI-H1734; first compound 0.03162 µM) was 0.257, the relative viability (NCI-H1734; first compound 0.1 µM) was 0.3 and the relative viability (NCI-H1734; first compound 0.3162 µM) was 0.244. The relative viability (NCI-H1734; first compound 1 µM) was 0.243, the relative viability (NCI-H647; first compound 0.01 µM) was 0.265 and the relative viability (NCI-H647; first compound 0.03162 µM) was 0.289. The relative viability (NCI-H647; first compound 0.1 µM) was 0.113, the relative viability (NCI-H647; first compound 0.3162 µM) was 0.332 and the relative viability (NCI-H647; first compound 1 µM) was 0.223. The relative viability (NCI-H358; first compound 0.01 µM) was 0.108, the relative viability (NCI-H358; first compound 0.03162 µM) was 0.0902 and the relative viability (NCI-H358; first compound 0.1 µM) was 0.115. The relative viability (NCI-H358; first compound 0.3162 µM) was 0.104, the relative viability (NCI-H358; first compound 1 µM) was 0.101 and the relative viability (PC-3 [JPC-3]; first compound 0.01 µM) was 0.988. The relative viability (PC-3 [JPC-3]; first compound 0.03162 µM) was 0.958, the relative viability (PC-3 [JPC-3]; first compound 0.1 µM) was 1.09 and the relative viability (PC-3 [JPC-3]; first compound 0.3162 µM) was 0.892. The relative viability (PC-3 [JPC-3]; first compound 1 µM) was 0.632, the relative viability (NCI-H2126; first compound 0.01 µM) was 0.861 and the relative viability (NCI-H2126; first compound 0.03162 µM) was 0.859. The relative viability (NCI-H2126; first compound 0.1 µM) was 1.1, the relative viability (NCI-H2126; first compound 0.3162 µM) was 0.864 and the relative viability (NCI-H2126; first compound 1 µM) was 0.798.
